Test results as given in PubChem BioAssay (NCI).
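All cell lines were grown in 96-well plates and treated with compound for 48 hours. The concentration for full growth arrest is given as TGI.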

Legend:
Experiment in all cases: NCI tumour cell line growth inhibition, 48 h
SF-539 CNS = test system: SF-539 CNS
MALME-3M melanoma = test system: MALME-3M melanoma
IGROV1 ovarian = test system: IGROV1 ovarian
MCF7 breast = test system: MCF7 breast
SN12C renal = test system: SN12C renal
UO-31 renal = test system: UO-31 renal
SNB-19 CNS = test system: SNB-19 CNS
HCT-116 colon = test system: HCT-116 colon
SR leukemia = test system: SR leukemia
HT29 colon = test system: HT29 colon
MDA-MB-435 = test system: MDA-MB-435
SW-620 colon = test system: SW-620 colon
COLO 205 colon = test system: COLO 205 colon
SK-OV-3 ovarian = test system: SK-OV-3 ovarian
ACHN renal = test system: ACHN renal
K-562 leukemia = test system: K-562 leukemia
OVCAR-5 ovarian = test system: OVCAR-5 ovarian
786-0 renal = test system: 786-0 renal
RPMI-8226 leukemia = test system: RPMI-8226 leukemia
OVCAR-8 ovarian = test system: OVCAR-8 ovarian
PC-3 prostate = test system: PC-3 prostate
NCI/ADR-RES ovarian = test system: NCI/ADR-RES ovarian
NCI-H226 lung = test system: NCI-H226 lung
T-47D breast = test system: T-47D breast
KM12 colon = test system: KM12 colon
NCI-H522 lung = test system: NCI-H522 lung
U251 CNS = test system: U251 CNS
BT-549 breast = test system: BT-549 breast
MDA-MB-231 breast = test system: MDA-MB-231 breast
HL-60(TB) leukemia = test system: HL-60(TB) leukemia
UACC-257 melanoma = test system: UACC-257 melanoma
NCI-H23 lung = test system: NCI-H23 lung
MOLT-4 leukemia = test system: MOLT-4 leukemia
UACC-62 melanoma = test system: UACC-62 melanoma
MDA-N = test system: MDA-N
LOX IMVI melanoma = test system: LOX IMVI melanoma
OVCAR-3 ovarian = test system: OVCAR-3 ovarian
SK-MEL-28 melanoma = test system: SK-MEL-28 melanoma
M14 melanoma = test system: M14 melanoma
HCT-15 colon = test system: HCT-15 colon
SNB-75 CNS = test system: SNB-75 CNS
SF-295 CNS = test system: SF-295 CNS
HOP-62 NSCLC = test system: HOP-62 NSCLC
TK-10 renal = test system: TK-10 renal
HCC-2998 colon = test system: HCC-2998 colon
SK-MEL-2 melanoma = test system: SK-MEL-2 melanoma
CAKI-1 renal = test system: CAKI-1 renal
SK-MEL-5 melanoma = test system: SK-MEL-5 melanoma
HOP-92 NSCLC = test system: HOP-92 NSCLC
CCRF-CEM leukemia = test system: CCRF-CEM leukemia
A498 renal = test system: A498 renal
EKVX NSCLC = test system: EKVX NSCLC
OVCAR-4 ovarian = test system: OVCAR-4 ovarian
A549 NSCLC = test system: A549 NSCLC

Measured: TGI

Cn1cnc([N+](=O)[O-])c1Sc1nncc2[nH]cnc12
> 100 µM: all assays above
